Laboratory results taken from PMC11881906, “Development of xanthone derivatives as effective broad-spectrum antimicrobials: Disrupting cell wall and inhibiting DNA synthesis” (Science Advances, 2025).
≈ marks a conversion by molar mass, not a printed value. Like-named read-outs stand apart in the source and are kept apart here.

Experiments:
MRSA N315 = assay: MIC, broth microdilution; format: cell-based; settings: Staphylococcus aureus, 24-hour incubation, MHB, read-out: MIC90 MRSA N315
Experimental: (§1) MIC was determined using the broth microdilution method in accordance with Clinical and Laboratory Standards Institute guidelines. All compounds were dissolved in dimethyl sulfoxide (DMSO; final DMSO concentration of less than 0.5%) and sterile double-distilled water and then diluted with Mueller-Hinton broth (MHB). Each compound’s stock solution was serially twofold diluted, resulting in concentrations ranging from 0.39 to 100 μg/ml, and thereafter added to sterile 96-well plates. All bacterial cell suspensions were adjusted in MHB to attain a starting inoculum of 1 × 10^6 cells/ml. A total of 100 μl volume of the bacterial suspension was then added to each well. Following a 24-hour incubation at 37°C, the optical density at 600 nm (OD600) was confirmed by measuring absorbance at 600 nm with a BioTek microplate reader. […] All measurements were repeated three times with duplicates each time.

MRSA NCTC 10442 = assay: MIC, broth microdilution; format: cell-based; settings: Staphylococcus aureus; 24-hour incubation, MHB; read-out: MIC90 MRSA NCTC 10442
Experimental: as §1

S. aureus ATCC 29213 = assay: MIC, broth microdilution; format: cell-based; settings: Staphylococcus aureus, ATCC29213, 24 h, 24-hour incubation, MHB; read-out: MIC90 S. aureus ATCC 29213
Experimental: as §1

E. coli ATCC 25922 = assay: MIC, broth microdilution; format: cell-based, Escherichia coli; settings: 24-hour incubation, MHB; for MIC90: Escherichia coli, ATCC25922, 24 h, read-out: MIC90 E. coli ATCC 25922
Experimental: as §1

rabbit erythrocytes = assay: Hemolysis assay; format: cell-based; settings: concentration causing 50% hemolysis of red blood cells; 1 hour, 37°C
Experimental: The hemolytic activity of antimicrobial agents was investigated as previously described ([70]). Briefly, the rabbit erythrocytes were centrifuged at 2500 rpm for 3 min before being washed twice with sterile phosphate-buffered saline (PBS) (pH 7.4). Subsequently, the erythrocytes were diluted with PBS to a final concentration of 8% (v/v). The DMSO-dissolved compounds were twofold serially diluted in PBS to achieve a final concentration with DMSO less than 0.5%. […] Sterile PBS and 0.2% Triton X-100 were used as negative and positive controls, respectively. After 1 hour of incubation at 37°C, the tested samples were centrifuged at 2500 rpm for 5 min, and aliquots of the supernatant were added to 96-well microplates. The hemoglobin release was determined by measuring the absorbance at 576 nm using a BioTek multimode reader. The percentage of hemolytic activity was calculated using the following formula: Hemolysis rate (%) = [OD576 (compound) − OD576 (PBS)]/[OD576 (Triton X-100) − OD576 (PBS)] × 100. All measurements were repeated three times with duplicates each time.

Gram-positive bacteria = assay: MIC, summary over Gram-positive strains; format: cell-based; settings: read-out: MICs against Gram-positive bacteria, three Gram-positive strains
Experimental: as §1

Gram-negative bacteria = assay: MIC, Gram-negative strains; format: cell-based; settings: read-out: MICs against Gram-negative bacteria
Experimental: as §1

A. baumannii ATCC 17978 = assay: MIC, broth microdilution; format: cell-based; settings: Acinetobacter baumannii, ATCC17978; 24-hour incubation, MHB
Experimental: as §1

A. baumannii R2889 = assay: MIC, broth microdilution; format: cell-based; settings: Acinetobacter baumannii, 24-hour incubation, MHB
Experimental: as §1

K. pneumonia ATCC 10031 = assay: MIC, broth microdilution; format: cell-based; settings: Klebsiella pneumoniae, ATCC10031; 24-hour incubation, MHB
Experimental: as §1

K. pneumonia ATCC 14581 = assay: MIC, broth microdilution; format: cell-based; settings: Klebsiella pneumoniae, ATCC14581; 24-hour incubation, MHB
Experimental: as §1

P. aeruginosa ATCC 9027 = assay: MIC, broth microdilution; format: cell-based; settings: Pseudomonas aeruginosa, ATCC9027; 24-hour incubation, MHB
Experimental: as §1

[1] = test system: tested strains (Gram-positive and Gram-negative bacteria); assay: MIC, summary over the tested strains; format: cell-based; settings: read-out: MICs against the tested strains
Experimental: as §1

[2] = Gram-positive and Gram-negative strains

Row | Compound | MIC90 (MRSA N315) [µg/mL] | MIC90 (MRSA NCTC 10442) [µg/mL] | MIC90 (S. aureus ATCC 29213) [µg/mL] | MIC90 (E. coli ATCC 25922) [µg/mL] | HC50 (rabbit erythrocytes) [µg/mL] | MIC (Gram-positive bacteria) [µg/mL] | MIC (Gram-negative bacteria) [µg/mL] | MIC90 (A. baumannii ATCC 17978) [µg/mL] | MIC90 (A. baumannii R2889) [µg/mL] | MIC90 (K. pneumonia ATCC 10031) [µg/mL] | MIC90 (K. pneumonia ATCC 14581) [µg/mL] | MIC90 (P. aeruginosa ATCC 9027) [µg/mL] | MIC90 E. coli ATCC 25922 (E. coli ATCC 25922) [µg/mL] | MIC [1, 2] [µg/mL] | MIC ([1]; 24 h) [µg/mL]
1 | COc1cc(OCCCNC(=N)N)cc2oc3cc(OCCCNC(=N)N)ccc3c(=O)c12 [XT19] | 12.5 (≈ 27.4 µM) | 6.25 (≈ 13.7 µM) | 6.25 (≈ 13.7 µM) | 100 (≈ 219 µM) | >200 | 6.25 to 12.5 (≈ 13.7 to 27.4 µM) | 100 (≈ 219 µM) | – | – | – | – | – | – | – | –
2 | CC(C)=CCOc1cc(OCCNC(=N)N)cc2oc3cc(OCCNC(=N)N)ccc3c(=O)c12 [XT42] | 1.56 (≈ 3.23 µM) | 1.56 (≈ 3.23 µM) | 1.56 (≈ 3.23 µM) | – | >200 | 0.098 to 1.56 (≈ 0.203 to 3.23 µM) | – | > 50 | > 50 | 50 (≈ 104 µM) | 50 (≈ 104 µM) | 6.25 (≈ 13 µM) | – | – | –
3 | CC(C)=CCOc1cc(OCCCCCCCCNC(=N)N)cc2oc3cc(OCCCCCCCCNC(=N)N)ccc3c(=O)c12 [XT45] | 0.195 (≈ 0.3 µM) | 0.39 (≈ 0.599 µM) | 0.39 (≈ 0.599 µM) | – | >200 | 0.098 to 1.56 (≈ 0.151 to 2.4 µM) | – | 50 (≈ 76.8 µM) | 50 (≈ 76.8 µM) | 12.5 (≈ 19.2 µM) | 25 (≈ 38.4 µM) | > 50 | – | – | –
4 | CNCCCCCCCCCCCCOc1ccc2c(=O)c3c(OCC=C(C)C)cc(OCCCCCCCCCCCCNC)cc3oc2c1 [XT40] | 12.5 (≈ 17.7 µM) | 6.25 (≈ 8.84 µM) | 25 (≈ 35.4 µM) | > 100 | >200 | – | – | – | – | – | – | – | >100 | – | –
5 | CCN(CC)CCCCCCOc1ccc2c(=O)c3c(OCC=C(C)C)cc(OCCCCCCN(CC)CC)cc3oc2c1 [XT35] | 3.12 (≈ 5.02 µM) | 3.12 (≈ 5.02 µM) | 1.56 (≈ 2.5 µM) | 50 (≈ 80.3 µM) | >200 | – | – | – | – | – | – | – | – | – | –
6 | CC1(C)S[C@@H]2[C@H](NC(=O)[C@H](N)c3ccc(O)cc3)C(=O)N2[C@H]1C(=O)O [AMO, amoxicillin, reference compound] | – | – | – | 6.25 (≈ 17.1 µM) | >200 | – | – | – | – | – | – | – | – | – | –
7 | CC(C)=CCOc1cc(OCCCN2CCCC2)cc2oc3cc(OCCCN4CCCC4)ccc3c(=O)c12 [XT12] | 12.5 (≈ 23.4 µM) | 6.25 (≈ 11.7 µM) | 6.25 (≈ 11.7 µM) | 25 (≈ 46.8 µM) | >200 | – | – | – | – | – | – | – | – | 6.25 to 25 (≈ 11.7 to 46.8 µM) | –
8 | CNCCCOc1ccc2c(=O)c3c(OCCCC(F)(F)F)cc(OCCCNC)cc3oc2c1 [XT16] | > 50 | > 50 | 50 (≈ 101 µM) | > 100 | >200 | – | – | – | – | – | – | – | – | – | 50 to 100 (≈ 101 to 201 µM)
9 | CNCCCCCCOc1ccc2c(=O)c3c(OCC=C(C)C)cc(OCCCCCCNC)cc3oc2c1 [XT34] | 1.56 (≈ 2.9 µM) | 1.56 (≈ 2.9 µM) | 1.56 (≈ 2.9 µM) | 12.5 (≈ 23.2 µM) | >200 | – | – | – | – | – | – | – | – | – | –
10 | CNCCCOc1ccc2c(=O)c3c(OCC=C(C)C)cc(OCCCNC)cc3oc2c1 [XT08] | 12.5 (≈ 27.5 µM) | 12.5 (≈ 27.5 µM) | 12.5 (≈ 27.5 µM) | 25 (≈ 55 µM) | >200 | – | – | – | – | – | – | – | – | 6.25 to 50 (≈ 13.7 to 110 µM) | –
11 | [H]/N=C(/N)NCCCOc1ccc2c(=O)c3c(OCC=C(C)CCC=C(C)C)cc(OCCCNC(=N)N)cc3oc2c1 [XT18] | 0.78 (≈ 1.35 µM) | 0.78 (≈ 1.35 µM) | 0.78 (≈ 1.35 µM) | 1.56 (≈ 2.7 µM) | 65.3 ± 2.75 | 0.39 (≈ 0.674 µM) | 1.56 (≈ 2.7 µM) | 25 (≈ 43.2 µM) | 12.5 (≈ 21.6 µM) | 6.25 (≈ 10.8 µM) | 12.5 (≈ 21.6 µM) | 12.5 (≈ 21.6 µM) | – | – | –
12 | O=c1c2ccc(O)cc2oc2cc(O)cc(O)c12 [XT01] | 50 (≈ 205 µM) | 50 (≈ 205 µM) | 50 (≈ 205 µM) | > 100 | >200 | – | – | > 50 | > 50 | > 50 | > 50 | > 50 | – | – | –
